Source: publication PMC2812926 (Journal of medicinal chemistry, 2008)

Tests used:
HIV-1MDR-TM = format: cell-based; settings: PHA-PBMC
HIV-1MDR-MM = format: cell-based; settings: PHA-PBMC
HIV-1MDR-JSL = format: cell-based; settings: PHA-PBMC
HIV-1MDR-B = format: cell-based; settings: PHA-PBMC
MDR/C = format: cell-based, HIV-1; settings: PHA-PBMC
HIV-1MDR-G = format: cell-based; settings: PHA-PBMC
MDR/A = format: cell-based, HIV-1; settings: PHA-PBMC
[1] = test system: HIV-1ERS104pre (wild-type); experiment: Antiviral assay in PHA-PBMC, p24 Gag production, HIV-1ERS104pre; format: cell-based; settings: PBMC versus MT-2 cells
HIV-1 protease = HIV-1 protease (Human immunodeficiency virus type 1 group M subtype B, UniProt P04585); experiment: HIV-1 protease enzyme inhibitory assay; format: biochemical

| Compound | number in parentheses: fold change of IC50 versus ERS104pre (wild-type) (HIV-1MDR-TM) | number in parentheses: fold change of IC50 versus ERS104pre (wild-type) (HIV-1MDR-MM) | number in parentheses: fold change of IC50 versus ERS104pre (wild-type) (HIV-1MDR-JSL) | number in parentheses: fold change of IC50 versus ERS104pre (wild-type) (HIV-1MDR-B) | number in parentheses: fold change of IC50 versus ERS104pre (wild-type) (MDR/C) | number in parentheses: fold change of IC50 versus ERS104pre (wild-type) (HIV-1MDR-G) | number in parentheses: fold change of IC50 versus ERS104pre (wild-type) (MDR/A) | potency change compared to 3i (enzyme Ki) (HIV-1 protease) | further results |
| --- | --- | --- | --- | --- | --- | --- | --- | --- | --- |
| CC(C)c1nc(CN(C)C(=O)N[C@H](C(=O)N[C@@H](Cc2ccccc2)C[C@H](O)[C@H](Cc2ccccc2)NC(=O)OCc2cncs2)C(C)C)cs1 [RTV] | > 29 | > 29 | > 29 | > 29 | > 29 | > 29 | > 29 |  |  |
| COc1ccc(S(=O)(=O)N(CC(C)C)C[C@@H](O)[C@H](Cc2ccccc2)NC(=O)O[C@@H]2CCOCOC2)cc1 [Inhibitor 3d, (1S,2R)-{1-Benzyl-2-hydroxy-3-[isobutyl(4-methoxybenzenesulfonyl)amino]propyl}carbamic acid (1R)-3,5-dioxacycloheptan-1-yl ester] |  |  |  |  |  |  |  |  | factor by which values in PBMCs were greater than those with MT-2 cells [1]: about 4 |
| COc1ccc(S(=O)(=O)N(CC(C)C)C[C@@H](O)[C@H](Cc2ccccc2)NC(=O)OC2COCCN(C)CCOC2)cc1 [Inhibitor 3m, (1S,2R)-{1-Benzyl-2-hydroxy-3-[isobutyl(4-methoxybenzenesulfonyl)amino]propyl}carbamic acid N-methyl-1,7-dioxa-4-azocyclodecan-9-yl ester] |  |  |  |  |  |  |  | no change in inhibitory activity |  |
| COc1ccc(S(=O)(=O)N(CC(C)C)C[C@@H](O)[C@H](Cc2ccccc2)NC(=O)OC2COCOC2)cc1 [Inhibitor 3h, (1S,2R)-{1-Benzyl-2-hydroxy-3-[isobutyl(4-methoxybenzenesulfonyl)amino]propyl}carbamic acid 1,3-dioxan-5-yl ester] | 10 | 5 | 55 | 38 | 27 | 50 | 2 |  |  |
| COc1ccc(S(=O)(=O)N(CC(C)C)C[C@@H](O)[C@H](Cc2ccccc2)NC(=O)O[C@H]2CCCOCC2)cc1 [Inhibitor 3f, (1S,2R)-{1-Benzyl-2-hydroxy-3-[isobutyl(4-methoxybenzenesulfonyl)amino]propyl}carbamic acid (S)-oxepan-4-yl ester] |  |  |  |  |  |  |  |  | reduction in enzymatic inhibitory potency with respect to 3d (HIV-1 protease): ~30 fold |
| COc1ccc(S(=O)(=O)N(CC(C)C)C[C@@H](O)[C@H](Cc2ccccc2)NC(=O)OC2COCCOCOCCOC2)cc1 [Inhibitor 3k, (1S,2R)-{1-Benzyl-2-hydroxy-3-[isobutyl(4-methoxybenzenesulfonyl)amino]propyl}carbamic acid 3,6,8,11-tetraoxacyclododecan-1-yl ester] |  |  |  |  |  |  |  | more than 2 fold | potency enhancement compared to inhibitor 3j (enzyme Ki) (HIV-1 protease; compared to 3j): 5 fold |
| CC(C)(C)NC(=O)[C@@H]1CN(Cc2cccnc2)CCN1C[C@@H](O)C[C@@H](Cc1ccccc1)C(=O)N[C@H]1c2ccccc2C[C@H]1O.O [IDV, Indinavir] | > 38 | > 38 | > 38 | > 38 | > 38 | 11 | > 38 |  |  |
| COc1ccc(S(=O)(=O)N(CC(C)C)C[C@@H](O)[C@H](Cc2ccccc2)NC(=O)O[C@@H]2CCCCOC2)cc1 [Inhibitor 3e, (1S,2R)-{1-Benzyl-2-hydroxy-3-[isobutyl(4-methoxybenzenesulfonyl)amino]propyl}carbamic acid (R)-oxepan-3-yl ester] |  |  |  |  |  |  |  |  | reduction in enzymatic inhibitory potency with respect to 3d (HIV-1 protease): ~30 fold |
| COc1ccc(S(=O)(=O)N(CC(C)C)C[C@@H](O)[C@H](Cc2ccccc2)NC(=O)OC2COCCS(=O)(=O)CCOC2)cc1 [Inhibitor 3l, (1S,2R)-{1-Benzyl-2-hydroxy-3-[isobutyl(4-methoxybenzenesulfonyl)amino]propyl}carbamic acid 3,9-dioxa-6-thiacyclodecan-1-yl 6,6-dioxide ester] |  |  |  |  |  |  |  | 9 fold |  |
